Here are results for one compound from PMC7391767, “Molecular mechanisms underlying menthol binding and activation of TRPM8 ion channel” (Nature Communications, 2020).

“And” between values parts separate entries of the source, which are not always exact repeats. Equal entries are not always repeated.

Type in all cases: cell-based
Holding throughout (parameters): Shifts in ANAP emission, Ave: unit: nm

Test [1] concerns the target T1, ANAP-incorporated TRPM8 (Mus musculus, UniProt Q8R4D5, S820X).
T1 construct: expressed in transfected cells; host or cells: HEK293 cells, co-transfected with the pANAP vector
The settings on record: ANAP incorporation site S820; average shift, menthol activated vs resting state.

Test [2] addresses T2, ANAP-incorporated TRPM8 (Mus musculus, UniProt Q8R4D5, Q1003X).
T2 construct: expressed in transfected cells; host or cells: HEK293 cells, co-transfected with the pANAP vector
The following applies: ANAP incorporation site Q1003; average shift, menthol activated vs resting state.

Test [3] addresses T3, ANAP-incorporated TRPM8 (Mus musculus, UniProt Q8R4D5, L774X).
T3 construct: expressed in transfected cells; host or cells: HEK293 cells, co-transfected with the pANAP vector

In test [4] the target is T4, ANAP-incorporated TRPM8 (Mus musculus, UniProt Q8R4D5, N789X).
T4 construct: expressed in transfected cells; host or cells: HEK293 cells, co-transfected with the pANAP vector
The following applies: ANAP incorporation site N789; average shift, menthol activated vs resting state.

For test [5], the target named is T5, ANAP-incorporated TRPM8 (Mus musculus, UniProt Q8R4D5, N947X).
T5 construct: expressed in transfected cells; host or cells: HEK293 cells, co-transfected with the pANAP vector
The settings on record: ANAP incorporation site N947.

Test [6] deals with T6, ANAP-incorporated TRPM8 (Mus musculus, UniProt Q8R4D5, N821X).
T6 construct: expressed in transfected cells; host or cells: HEK293 cells, co-transfected with the pANAP vector
The settings on record: ANAP incorporation site N821.

Test [7] deals with T7, ANAP-incorporated TRPM8 (Mus musculus, UniProt Q8R4D5, N852X).
T7 construct: expressed in transfected cells; host or cells: HEK293 cells, co-transfected with the pANAP vector
The following applies: ANAP incorporation site N852.

The target in test [8] is T8, ANAP-incorporated TRPM8 (Mus musculus, UniProt Q8R4D5, Y999X).
T8 construct: expressed in transfected cells; host or cells: HEK293 cells, co-transfected with the pANAP vector
The settings on record: ANAP incorporation site Y999; average shift, menthol activated vs resting state.

Where [9] appears, read: average shift, menthol activated vs resting state.

In the case of `CC(C)[C@@H]1CC[C@@H](C)C[C@H]1O` [menthol, (−)-menthol], the Shifts_ave stood at 0.28 nm in test [1]; 1.02 nm in test [2]; 2.3625 nm in test [3] (ANAP incorporation site L774, average shift, menthol activated vs resting state); 0.79 nm in test [4]; 0.33 nm in test [5] (setting [9]); 0.50 nm in test [6] (setting [9]). Also, the Shifts_ave in test [7] (setting [9]) is 1.13 nm; in test [8] it was 0.79 nm. The “Shifts in ANAP emission, Ave” value in test [3] (ANAP at L774) turned out to be 2.36. The “Emission Peak at menthol activated state” value in test [3] (ANAP incorporation site L774, single measurement) was 484.17 nm and 483.39 nm and 483.98 nm and 484.46 nm and 486.95 nm and 482.2 nm and 480.79 nm; in test [5] (single measurement) it was 485.99 nm and 482.4 nm and 486.05 nm and 485.2 nm and 481.1 nm; in test [6] (single measurement) it was 493.6 nm; in test [7] (single measurement), 487.02 nm and 492.63 nm and 483.01 nm and 479.1 nm and 483.68 nm. Further, the Shifts in emission in test [7] (menthol activated vs resting state, single measurement) was 1.32 nm and 1.2 nm and 0.75 nm and 1.07 nm.
